Measurements taken from ChEMBL document CHEMBL3124906 (J Nat Prod, 2014).
The source made the active and inactive calls. No cut-off for these calls is given here.

How the values were obtained:
[1] = system: Influenza A virus; experiment: Antiviral activity against Influenza A virus J/8178/09 infected in MDCK cells assessed as inhibition of virus-induced cytopathic effect at 50 uM after 48 hrs; type: functional; conditions: for inhibition at 50 µM: Influenza A virus, J/8178/09, MDCK, 48 h
[2] = system: Influenza A virus; experiment: Antiviral activity against Influenza A virus (A/Hong Kong/1/1968(H3N2)) infected in MDCK cells assessed as inhibition of virus-induced cytopathic effect at 50 uM after 48 hrs; type: functional; conditions: for inhibition at 50 µM: Influenza A virus, MDCK, 48 h
[3] = Cytotoxicity against MDCK cells after 72 hrs; type: cell-based, Canis lupus familiaris; conditions: dog
[4] = Inhibition of Clostridium perfringens neuraminidase by chemiluminescence based assay
[5] = Induction of fluorescence quenching at 100 uM relative to 4-methylumbelliferone; type: physicochemical
[6] = Induction of fluorescence at 100 uM relative to 4-methylumbelliferone; type: physicochemical
[7] = Inhibition of Clostridium perfringens neuraminidase by fluorescence based assay

Row | Structure (SMILES) | inhibition (INH) [1] [%] | inhibition (INH) [2] [%] | CC50 at 72 h [3] [µM] | IC50 [4] [µM] | Activity [5] [%] | inhibition at 50 µM [1] [%] | inhibition [2] | Activity [6] [%] | IC50 [7] [µM] | inhibition [1] | inhibition at 50 µM [2] [%]
1 | CC(C)=CCc1c(O)ccc(C(=O)/C=C/c2cc(O)c3c(c2)C=CC(C)(C)O3)c1O | 29.7 | 48.1 | 135 | – | – | – | – | – | – | – | –
2 | CC1(C)C=Cc2c(ccc3c2OCC(O)C3)O1 (configuration not stated) | – | – | 336 | 0.64 | 15 | 36.1 | inactive | 0 | 2.88 | – | –
3 | O=C(/C=C/c1ccc(O)cc1)OC[C@]1(O)CO[C@H](O[C@H]2[C@H](Oc3ccc(/C=C/C(=O)c4ccc(O)cc4O)cc3)O[C@H](CO)[C@@H](O)[C@@H]2O)[C@H]1O | – | – | – | – | – | – | inactive | – | – | inactive | –
4 | O=C1C[C@@H](c2ccc(O[C@@H]3O[C@H](CO)[C@@H](O)[C@H](O)[C@H]3O[C@H]3OC[C@@](O)(COC(=O)c4c[nH]c5ccccc45)[C@@H]3O)cc2)Oc2cc(O)ccc21 | – | – | – | – | – | – | inactive | – | – | inactive | –
5 | COc1ccc(-c2coc3cc(O)ccc3c2=O)cc1 [FORMONONETIN] | – | – | 123 | 0.34 | -12.4 | – | – | 15.4 | 13.6 | – | –
6 | CC(C)=CCc1cc([C@@H]2CC(=O)c3ccc(O)c(CC=C(C)C)c3O2)ccc1O [GLABROL] | – | – | 25.4 | 0.13 | 37.4 | – | inactive | 1.18 | 2.17 | inactive | –
7 | CC1(C)C=Cc2c(ccc(-c3coc4cc(O)ccc4c3=O)c2O)O1 [GLABRONE] | – | – | 90.8 | 0.07 | 28.3 | – | – | 0.68 | 11.7 | – | 24.2
8 | CC1(C)C=Cc2c(ccc([C@@H]3COc4c(ccc5c4C=CC(C)(C)O5)C3)c2O)O1 [HISPAGLABRIDIN B] | – | – | 39.2 | 0.17 | 15.1 | 48.4 | – | 0.05 | 4.23 | – | 31.2
9 | O=C1C[C@@H](c2ccc(O[C@@H]3O[C@H](CO)[C@@H](O)[C@H](O)[C@H]3O)cc2)Oc2cc(O)ccc21 [LIQUIRITIN] | – | – | > 239 | – | – | – | inactive | – | – | inactive | –
10 | O=C1C[C@@H](c2ccc(O)cc2)Oc2cc(O)ccc21 [LIQUIRTIGENIN] | – | – | 301 | – | – | – | inactive | – | – | inactive | –
11 | CCOC(=O)C1=C[C@@H](OC(CC)CC)[C@H](NC(C)=O)[C@@H](N)C1 [OSELTAMIVIR] | – | – | – | 110 | 12.8 | – | – | 0.05 | 125 | – | –
12 | O=C1C[C@@H](c2ccc(O)cc2)Oc2cc(O[C@@H]3O[C@H](CO)[C@@H](O)[C@H](O)[C@H]3O)cc(O)c21 [PRUNIN] | 49.6 | – | 126 | – | – | – | inactive | – | – | – | –
